These results are taken from patent publication US6444234B1, “Compositions for rapid and non-irritating transdermal delivery of pharmaceutically active agents and methods for formulating such compositions and delivery thereof” (priority 1998, dated 2002).

For series [1], the system named is air pouch granulomas. The experiment in a line: Murine Chronic Granulomatous Air-Pouch Model. In kind it is in vivo, mouse. The following applies: normally sub-effective dose (30 mg/kg); decrease in dry weight of the granuloma. The text has this: This example describes the results of an animal (mouse) study performed at St. Bartholomew's and The Royal London School of Medicine and Dentistry, Department of Experimental Pathology, to establish the efficacy of the topical delivery system, based on the Stock Delivery System of this invention for transdermal delivery of Cystamine (2,2′-dithiobisethanamine). A Murine Chronic Granulomatous Air-Pouch Model was used for evaluation of the delivery of the drug with SDS versus a control vehicle alone; control vehicle plus drug; and SDS alone.
In this study, 1 milligram (mg) of cystamine was added to 0.5 cc of Standard Stock Solution (SDS) as previously described, or to a control vehicle (aqueous isopropanol). In each case, the active ingredient (cystamine) was administered in an amount of 30 mg per kilogram of body weight.
Mice (TO or BALB/c, for hormone studies, 30±5 g) were lightly anaesthetized with halothane. Three milliliters of air were injected subcutaneously into the scruff of the neck using a 25 G needle. The shape of the air pouch was controlled by manipulation during inflation. […]
Vascularity was assessed by a modified form (see Kimura et al, [need citation] 1986) of the Carmine Red Vascular Casting technique. […] The dye content was measured spectrophotometrically at 490 nm against a standard curve of dye from 1-100 μg/ml. […]

Series [2] in a line: Pilot trial on three hairless rats, blood samples after topical delivery system. In kind it is in vivo, hairless rat.
Method: A pilot trial is performed on three hairless rats, during which a baseline blood sample is drawn, then 1 ml of the topical delivery system containing a titrated dose of each of the three test drugs is administered to each of the rats. Samples are harvested at 30 and 60 minutes.
The nature of series [3]: Laboratory solubilization of amitriptyline in the modified stock delivery system. The format is physicochemical. As to conditions: modified SDS; predicted amount within experimental error of the actual amount. The text has this: The following Table 4 illustrates how the balancing of molar van der Waals forces can be utilized as a predictor of the solubilization of amitriptyline in the stock delivery system. In this case the calculations for balancing molar van der Waals forces were made first using the Chem3D software and the solutions were thereafter formulated in the laboratory. The amount predicted to dissolve, 2.08 gm per 100 c.c., was within experimental error of the actual amount which would dissolve in the laboratory experiment. In this case, the system was balanced by increasing the amounts of methylsulfonylmethane and ethanol and decreasing the amount of propylene glycol.

Series [4] can be described thus: Full-scale protocol trial on 15 hairless rats. As to conditions: topical.
Method: Samples for the morphine and acyclovir groups are taken at 30 minutes, 60 minutes and 120 minutes.
The format of series [5] is physicochemical. An excerpt:
The following tables are typical data sheets generated by the Chem3D software. These charts confirm the independent experimental solubility data and also, in Tables 1-3, show how modulation of the carrier system allows a higher dose of the test medicament, Diosgenin (MW=414.61).
It is pointed out, however, that the formulations shown in the following Tables, and which are based on the above described Stock Delivery System, were originally prepared without benefit of the use of the Chem 3D software and included omission of several different modifiers. Modifications to the SDS to effect solubilization and increase solute solvent ratios were made by the inventor on the basis of knowledge of how and where the solute (drug) works in the body and using this information to make intuitive predictions of how the solute would interact with the surrounding molecules of the SDS, such as induced polarities relative to other molecules; induction of electric fields due to influence of surrounding molecules; hydrophobic versus hydrophilic properties, etc., while always taking into consideration the desired functional effects contributed by each ingredient. […]

Take `NCCSSCCN` [cystamine, 2,2′-dithiobisethanamine]: the “efficacy of the dose when delivered with SDS” value in series [1] was “effective dose”. With `Nc1nc2c(ncn2COCCO)c(=O)[nH]1` [Acyclovir], in series [2] (hairless, rat, in vivo), the “blood sample level, Baseline” value turned out to be 0. For the compound `CN(C)CCC=C1c2ccccc2CCc2ccccc21` [Amitriptyline], the “actual amount which would dissolve in the laboratory experiment” value in series [3] is given as approximately 2.08 gm per 100 c.c. As for `CN1CC[C@]23c4c5ccc(O)c4O[C@H]2[C@@H](O)C=C[C@H]3[C@H]1C5.O=S(=O)(O)O` [morphine sulfate], the “blood sample level, Baseline” value in series [2] (before 1 ml of the topical delivery system) was found to be 0. Moreover, the “blood sample level, 60 minutes” value in series [2] (morphine 2.5 mg in 1 ml, topical) is listed as 45 nmol/L. Besides, the “blood levels compared with intravenous dosing” value in series [4] (2.5 mg dose of morphine) is “equivalent to a 10 mg IV dose”. With `C[C@@H]1CC[C@@]2(OC1)O[C@H]1C[C@H]3[C@@H]4CC=C5C[C@@H](O)CC[C@]5(C)[C@H]4CC[C@]3(C)[C@H]1[C@@H]2C` [Diosgenin, (25R)-Spirost-5-en-3β-ol], the “increase of solubilized dose” value in series [5] is approximately 5 fold. Regarding `C[C@]12CC[C@H]3[C@@H](CCC4=CC(=O)CC[C@@]43C)[C@@H]1CC[C@@H]2O` [Testosterone], in series [2] (testosterone 5 mg in 1 ml, topical), the “blood sample level, 30 minutes” value is on record as 1,552 ng/dl. Besides, the “increase of testosterone levels” value in series [4] (in one hour, 5 mg in 1 ml) turned out to be 10 fold.
